PubChem BioAssay (NCI)
“And” between values parts separate entries of the source, which are not always exact repeats. Equal values may be shown once.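 Growth conditions: 96-well plates. Treatment: test compound, 48 hours, 5 concentrations. Analysis: linear interpolation between bracketing concentrations; unreached endpoints set to highest concentration. GI50 marks 50% less growth. TGI denotes the concentration required for complete inhibition of growth.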

Assays:
Assay in all cases: NCI-60 cell line screen, 48 h
HL-60(TB) leukemia = system: HL-60(TB) leukemia
EKVX NSCLC = system: EKVX NSCLC
NCI-H522 lung = system: NCI-H522 lung
NCI-H226 lung = system: NCI-H226 lung
MOLT-4 leukemia = system: MOLT-4 leukemia
CCRF-CEM leukemia = system: CCRF-CEM leukemia
IGROV1 ovarian = system: IGROV1 ovarian
PC-3 prostate = system: PC-3 prostate
M14 melanoma = system: M14 melanoma
COLO 205 colon = system: COLO 205 colon

Row | Structure (SMILES) | GI50 (HL-60(TB) leukemia) | TGI (HL-60(TB) leukemia) | GI50 (EKVX NSCLC) | TGI (EKVX NSCLC) | GI50 (NCI-H522 lung) | TGI (NCI-H522 lung) | GI50 (NCI-H226 lung) | GI50 (MOLT-4 leukemia) | TGI (MOLT-4 leukemia) | GI50 (CCRF-CEM leukemia) | TGI (CCRF-CEM leukemia) | GI50 (IGROV1 ovarian) | TGI (IGROV1 ovarian) | GI50 (PC-3 prostate) | TGI (PC-3 prostate) | GI50 (M14 melanoma) | TGI (M14 melanoma) | GI50 (COLO 205 colon) | TGI (COLO 205 colon) | TGI (NCI-H226 lung)
1 | CCOC(=O)c1[nH]c2cc(Cl)ccc2c1[C@@H](C(=O)NC(C)(C)C)N(CC)C(=O)CCCCC#Cc1cccc2c1CN(C1CCC(=O)NC1=O)C2=O (some centres undefined) | < 0.01 µM | 0.0959 µM | 1.39 µM | 45.5 µM | 1.8 µM | 25.8 µM | 0.0343 µM | < 0.01 µM | 0.0152 µM | < 0.01 µM | > 100 µM | < 0.0109 µM | 11.1 µM | < 0.01 µM | 9.36 µM | 0.213 µM | 17.7 µM | 0.0308 µM | 2.53 µM | 
2 | O=C1C2CCN(CC2)C1CN1CCOCC1 (centres undefined) |  | > 100 µM |  | 33.8 µM |  | 1.99 µM |  |  | 13.8 µM |  | > 23.8 µM |  | 38.4 µM |  | 34.7 µM |  | 6.46 µM |  | 3.27 µM | 26.5 µM
3 | CN(C)CCNc1ccc2ncn3c4ccc(O)cc4c(=O)c1c23 |  | 13.6 µM |  | 17.5 µM |  | 5.68 µM |  |  | 10.5 µM |  | 15.3 µM |  | 8.87 µM |  | 10.8 µM |  | 8.47 µM |  | 9.32 µM | 3.47 µM
4 | Cc1c(CN2CCN(C(=O)[C@H](C)O)CC2)sc2c(N3CCOCC3)nc(-c3cnc(N)nc3)nc12 | 0.146 µM and 0.192 µM | > 10 µM and 6.81 µM | 0.121 µM and 0.21 µM | 2.26 µM and 2.34 µM | 0.22 µM and 0.156 µM | > 10 µM | 0.345 µM and 0.159 µM | 0.175 µM and 0.139 µM | > 10 µM and 12.7 µM | 1.11 µM and 0.322 µM | > 100 µM | 0.0161 µM and 0.0511 µM | 0.265 µM and 0.377 µM | 0.122 µM and 0.0753 µM | > 100 µM | 0.326 µM and 0.0936 µM | > 9.28 µM and 1.44 µM | 0.224 µM and 0.233 µM | > 5.47 µM and 9.5 µM | 6.15 µM
5 | CN1C(=O)CCC(N2C(=O)c3cccc(NCCOCCOCCNC(=O)c4cc5c(o4)C(=O)c4ccccc4C5=O)c3C2=O)C1=O (centres undefined) | 2.03 µM | 5.88 µM | 2.59 µM | 7.28 µM | 1.96 µM | 5.08 µM | 1.67 µM | 2.38 µM | 5.8 µM | 3.75 µM | 24.4 µM | 1.8 µM | 4.31 µM | 2.07 µM | 18 µM | 1.35 µM | 2.74 µM | 2.06 µM | 4.04 µM | 3.78 µM
6 | COc1nc(N)nc2c1ncn2C1CC(O)C(CO)O1 (centres undefined) |  | > 100 µM |  | > 100 µM |  | > 100 µM |  |  | > 100 µM |  | > 100 µM |  | > 100 µM |  | > 100 µM |  | > 100 µM |  | > 100 µM | > 100 µM
7 | CC(C)(C)OC(=O)NCC(CNC(=O)OC(C)(C)C)C(N)=O |  | > 100 µM |  | > 100 µM |  | > 100 µM |  |  | > 100 µM |  | > 100 µM |  | > 100 µM |  | > 100 µM |  | > 100 µM |  | > 100 µM | > 100 µM
8 | NC(=O)CC1OC(=O)Cc2cc3c(c(O)c21)C(=O)c1c(O)cccc1C3=O (centres undefined) |  | > 100 µM |  | > 100 µM |  | > 100 µM |  |  | > 100 µM |  | > 100 µM |  | > 100 µM |  | > 100 µM |  | > 100 µM |  | > 100 µM | > 100 µM
